Test results reported in ChEMBL document CHEMBL5728961, “Compounds useful for treating gastrointestinal tract disorders” (2022).

Assays:
[1] = target: T1, Sodium/hydrogen exchanger 3 (Homo sapiens, UniProt P48764); assay: Cell-Based Assay of NHE-3 Activity (Persistent Inhibition): The ability of compounds to inhibit human and rat NHE-3-mediated Na+ dependent H+ antiport after application and washout was measured using a modification of the pH sensitive dye method described above. PS120 fibroblasts stably expressing human NHE3 and NHERF2 were obtained from Mark Donowitz (Baltimore, Md.). Opossum kidney (OK) cells were obtained from the ATCC and propagated per their instructions. The rat NHE-3 gene was introduced into OK cells via electroporation, and cells were seeded into 96 well plates and grown overnight. Medium was aspirated from the wells, cells were washed once with NaCl-HEPES buffer (100 mM NaCl, 50 mM HEPES, 10 mM glucose, 5 mM KCl, 2 mM CaCl2, 1 mM MgCl2, pH 7.4), then overlayed with NaCl-HEPES buffer containing 0-30 μM test compound. After a 60 min incubation at room temperature, the test drug containing buffer was aspirated from the cells. Following aspiration, cells were washed once with NaCl-HEPES buffer without drug, then incubated for 30 min at 37° C. with NH4Cl-HEPES buffer (20 mM NH4Cl, 80 mM NaCl, 50 mM HEPES, 5 mM KCl, 2 mM CaCl2, 1 mM MgCl2, pH 7.4) containing 5 μM BCECF-AM. Cells were washed once with Ammonium free, Na+-free HEPES (100 mM choline, 50 mM HEPES, 10 mM glucose, 5 mM KCl, 2 mM CaCl2, 1 mM MgCl2, pH 7.4) and incubated in the same buffer for 10 minutes at room temperature to lower intracellular pH. NHE-3-mediated recovery of neutral intracellular pH was initiated ([…]) by addition of Na-HEPES buffer. […] Changes in intracellular pH were monitored using a FLIPR Tetra® (Molecular Devices, Sunnyvale, Calif.) by excitation at λex 439 to 505 nm, and measuring BCECF fluorescence at λem 538 nm. The initial rate of the fluorescence ratio change was used as a measure of NHE-mediated Na+/H+ activity, and reported as the change in fluorescence ratio per minute.
T1 sequence (P48764 whole entry): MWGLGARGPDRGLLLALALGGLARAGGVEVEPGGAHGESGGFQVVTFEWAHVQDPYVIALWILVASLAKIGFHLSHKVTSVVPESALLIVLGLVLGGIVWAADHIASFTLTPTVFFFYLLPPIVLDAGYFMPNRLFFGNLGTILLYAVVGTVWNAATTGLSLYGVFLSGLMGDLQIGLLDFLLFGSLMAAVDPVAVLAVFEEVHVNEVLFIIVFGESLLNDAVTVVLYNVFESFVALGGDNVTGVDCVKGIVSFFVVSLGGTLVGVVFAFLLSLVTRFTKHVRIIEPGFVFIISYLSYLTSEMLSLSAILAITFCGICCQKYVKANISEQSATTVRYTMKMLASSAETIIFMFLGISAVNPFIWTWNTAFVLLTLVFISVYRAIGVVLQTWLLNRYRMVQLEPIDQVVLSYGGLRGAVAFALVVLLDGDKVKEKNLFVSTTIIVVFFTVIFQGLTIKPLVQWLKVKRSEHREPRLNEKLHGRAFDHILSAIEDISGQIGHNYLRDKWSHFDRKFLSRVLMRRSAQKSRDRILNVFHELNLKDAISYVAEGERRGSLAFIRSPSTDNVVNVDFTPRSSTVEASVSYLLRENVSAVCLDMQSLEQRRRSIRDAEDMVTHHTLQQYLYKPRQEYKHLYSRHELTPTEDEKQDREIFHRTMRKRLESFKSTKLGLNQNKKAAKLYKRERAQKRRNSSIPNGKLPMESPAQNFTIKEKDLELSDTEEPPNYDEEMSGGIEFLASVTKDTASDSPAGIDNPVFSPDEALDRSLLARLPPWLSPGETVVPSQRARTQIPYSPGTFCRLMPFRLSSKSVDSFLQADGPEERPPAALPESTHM

[2] = target: T1, Sodium/hydrogen exchanger 3; assay: Cell-Based Assay of NHE-3 Activity (Pre-Incubation Inhibition): Rat and human NHE-3-mediated Na+-dependent H+ antiport was measured using a modification of the pH sensitive dye method originally reported by Paradiso (Proc. Natl. Acad. Sci. USA. (1984) 81(23): 7436-7440). PS120 fibroblasts stably expressing human NHE3 and NHERF2 were obtained from Mark Donowitz (Baltimore, Md.). Opossum kidney (OK) cells were obtained from the ATCC and propagated per their instructions. The rat NHE-3 gene (GenBank M85300) was introduced into OK cells via electroporation, and cells were seeded into 96 well plates and grown overnight. Medium was aspirated from the wells then incubated for 30 min at 37° C. with NH4Cl-HEPES buffer (20 mM NH4Cl, 80 mM NaCl, 50 mM HEPES, 5 mM KCl, 2 mM CaCl2, 1 mM MgCl2, pH 7.4) containing 5 μM BCECF-AM. Cells were washed once with Ammonium free, Na+-free HEPES (100 mM choline, 50 mM HEPES, 10 mM glucose, 5 mM KCl, 2 mM CaCl2, 1 mM MgCl2, pH 7.4) and incubated in the same buffer for 10 minutes at room temperature to lower intracellular pH with 0-30 μM test compound. […] Changes in intracellular pH were monitored using a FLIPR Tetra® (Molecular Devices, Sunnyvale, Calif.) by excitation at λex 439 to 505 nm, and measuring BCECF fluorescence at λem 538 nm. The initial rate of the fluorescence ratio change was used as a measure of NHE-mediated Na+/H+ activity, and reported as the change in fluorescence ratio per minute.

IC50 [1] [nM] | IC50 [2] [nM] | SMILES
< 100 | < 100 | Cc1cc(S(=O)(=O)N2CC[C@@H](COCCOCCNC(=O)NCCCCNC(=O)NCCOCCOC[C@@H]3CCN(S(=O)(=O)c4ccc(O[C@H]5c6cc(Cl)cc(C#N)c6C[C@@H]5N(C)C)c(C)c4)C3)C2)ccc1O[C@H]1c2cc(Cl)cc(C#N)c2C[C@@H]1N(C)C
> 1000 | > 1000 | CN(C)[C@H]1Cc2c(Cl)cc(Cl)cc2[C@@H]1Oc1ccc(S(=O)(=O)NCCCCCCCCNC(=O)NCCCCNC(=O)NCCCCCCCCNS(=O)(=O)c2ccc(O[C@H]3c4cc(Cl)cc(Cl)c4C[C@@H]3N(C)C)cc2)cc1
< 100 | < 100 | N[C@@H]1CCCN([C@H]2Cc3c(Cl)cc(Cl)cc3[C@@H]2Oc2ccc(S(=O)(=O)NCCCCCCn3cc(CNC(=O)NCCCCNC(=O)NCc4cn(CCCCCCNS(=O)(=O)c5ccc(O[C@H]6c7cc(Cl)cc(Cl)c7C[C@@H]6N6CCC[C@@H](N)C6)cc5)nn4)nn3)cc2)C1
< 100 | < 100 | N[C@@H]1CCCN([C@H]2Cc3c(Cl)cc(Cl)cc3[C@@H]2Oc2ccc(S(=O)(=O)NCCOCCOCCNC(=O)NCCCCNC(=O)NCCOCCOCCNS(=O)(=O)c3ccc(O[C@H]4c5cc(Cl)cc(Cl)c5C[C@@H]4N4CCC[C@@H](N)C4)c(F)c3)cc2F)C1
< 100 | < 100 | Cc1cc(Cl)cc2c1C[C@H](N(C)C)[C@H]2Oc1ccc(S(=O)(=O)NCCOCCOCCNC(=O)NCCCCNC(=O)NCCOCCOCCNS(=O)(=O)c2ccc(O[C@H]3c4cc(Cl)cc(C)c4C[C@@H]3N(C)C)c(F)c2)cc1F
> 1000 | > 1000 | Cc1cc(S(=O)(=O)NCCCCCCCCNC(=O)NCCCCNC(=O)NCCCCCCCCNS(=O)(=O)c2ccc(O[C@H]3c4cc(Cl)cc(Cl)c4C[C@@H]3N(C)C)c(C)c2)ccc1O[C@H]1c2cc(Cl)cc(Cl)c2C[C@@H]1N(C)C
< 100 | < 100 | O=C(NCCCCNC(=O)NCCOCCN1CC[C@H](NS(=O)(=O)c2ccc(O[C@H]3c4cc(Cl)cc(Cl)c4C[C@@H]3N3CCNCC3)c(F)c2)C1)NCCOCCN1CC[C@H](NS(=O)(=O)c2ccc(O[C@H]3c4cc(Cl)cc(Cl)c4C[C@@H]3N3CCNCC3)c(F)c2)C1
< 100 | < 100 | Cc1cc(Cl)cc2c1C[C@H](N1CCNCC1)[C@H]2Oc1ccc(S(=O)(=O)NCCOCCOCCNC(=O)NCCCCNC(=O)NCCOCCOCCNS(=O)(=O)c2ccc(O[C@H]3c4cc(Cl)cc(C)c4C[C@@H]3N3CCNCC3)cc2)cc1
> 1000 | > 1000 | CN(C)[C@@H]1CCCN([C@H]2Cc3c(C#N)cc(Cl)cc3[C@@H]2Oc2ccc(S(=O)(=O)NCCOCCOCCNC(=O)NCCCCNC(=O)NCCOCCOCCNS(=O)(=O)c3ccc(O[C@H]4c5cc(Cl)cc(C#N)c5C[C@@H]4N4CCC[C@@H](N(C)C)C4)c(F)c3)cc2F)C1
< 100 | < 100 | Cc1cc(S(=O)(=O)NCCOCCOCCNC(=O)NCCCCNC(=O)NCCOCCOCCNS(=O)(=O)c2ccc(O[C@H]3c4cc(Cl)cc(C)c4C[C@@H]3N3CCC[C@@H](N)C3)c(C)c2)ccc1O[C@H]1c2cc(Cl)cc(C)c2C[C@@H]1N1CCC[C@@H](N)C1
< 100 | < 100 | Cc1cc(Cl)cc2c1C[C@H](N1CCC[C@@H](N)C1)[C@H]2Oc1ccc(S(=O)(=O)NCCOCCOCCNC(=O)NCCCCNC(=O)NCCOCCOCCNS(=O)(=O)c2ccc(O[C@H]3c4cc(Cl)cc(C)c4C[C@@H]3N3CCC[C@@H](N)C3)c(F)c2)cc1F
< 100 | < 100 | N[C@@H]1CCCN([C@H]2Cc3c(Cl)cc(Cl)cc3[C@@H]2Oc2c(F)cc(S(=O)(=O)NCCOCCOCCNC(=O)NCCCCNC(=O)NCCOCCOCCNS(=O)(=O)c3cc(F)c(O[C@H]4c5cc(Cl)cc(Cl)c5C[C@@H]4N4CCC[C@@H](N)C4)c(F)c3)cc2F)C1
> 1000 | > 1000 | Cc1cc(S(=O)(=O)NCCOCCOCCNC(=O)NCCCCNC(=O)NCCOCCOCCNS(=O)(=O)c2ccc(O[C@H]3c4cc(Cl)cc(C#N)c4C[C@@H]3N3CCC[C@@H](N)C3)c(C)c2)ccc1O[C@H]1c2cc(Cl)cc(C#N)c2C[C@@H]1N1CCC[C@@H](N)C1
< 100 | < 100 | Cc1cc(O[C@H]2c3cc(Cl)cc(Cl)c3C[C@@H]2N2CCC[C@@H](N)C2)c(F)cc1S(=O)(=O)NCCOCCOCCNC(=O)NCCCCNC(=O)NCCOCCOCCNS(=O)(=O)c1cc(F)c(O[C@H]2c3cc(Cl)cc(Cl)c3C[C@@H]2N2CCC[C@@H](N)C2)cc1C
< 100 | < 100 | Cc1cc(S(=O)(=O)N[C@@H]2CCN(CCOCCNC(=O)NCCCCNC(=O)NCCOCCN3CC[C@@H](NS(=O)(=O)c4ccc(O[C@H]5c6cc(Cl)cc(C#N)c6C[C@@H]5N(C)C)c(C)c4)C3)C2)ccc1O[C@H]1c2cc(Cl)cc(C#N)c2C[C@@H]1N(C)C
< 100 | < 100 | CN(C)[C@@H]1CCCN([C@H]2Cc3c(Cl)cc(Cl)cc3[C@@H]2Oc2ccc(S(=O)(=O)NCCOCCOCCNC(=O)NCCCCNC(=O)NCCOCCOCCNS(=O)(=O)c3ccc(O[C@H]4c5cc(Cl)cc(Cl)c5C[C@@H]4N4CCC[C@@H](N(C)C)C4)c(F)c3)cc2F)C1
< 100 | < 100 | Cc1cc(S(=O)(=O)NCCOCCOCCNC(=O)NCCCCNC(=O)NCCOCCOCCNS(=O)(=O)c2ccc(O[C@H]3c4cc(Cl)cc(Cl)c4C[C@@H]3N3CCC[C@@H](N(C)C)C3)c(C)c2)ccc1O[C@H]1c2cc(Cl)cc(Cl)c2C[C@@H]1N1CCC[C@@H](N(C)C)C1
< 100 | < 100 | Cc1cc(S(=O)(=O)NCCOCCOCCNC(=O)NCCCCNC(=O)NCCOCCOCCNS(=O)(=O)c2cc(C)c(O[C@H]3c4cc(Cl)cc(Cl)c4C[C@@H]3N3CCC[C@@H](N)C3)cc2F)c(F)cc1O[C@H]1c2cc(Cl)cc(Cl)c2C[C@@H]1N1CCC[C@@H](N)C1
> 1000 | > 1000 | CN(C)[C@H]1Cc2c(cc(Cl)cc2C(F)(F)F)[C@@H]1Oc1ccc(S(=O)(=O)NCCOCCOCCNC(=O)NCCCCNC(=O)NCCOCCOCCNS(=O)(=O)c2ccc(O[C@H]3c4cc(Cl)cc(C(F)(F)F)c4C[C@@H]3N(C)C)cc2)cc1
< 100 | < 100 | Cc1cc(Cl)cc2c1C[C@H](N1CCC[C@@H](N)C1)[C@H]2Oc1ccc(S(=O)(=O)NCCOCCOCCNC(=O)NCCCCNC(=O)NCCOCCOCCNS(=O)(=O)c2ccc(O[C@H]3c4cc(Cl)cc(C)c4C[C@@H]3N3CCC[C@@H](N)C3)cc2)cc1
> 1000 | > 1000 | CN(C)[C@H]1Cc2c(OC(F)(F)F)cc(Cl)cc2[C@@H]1Oc1ccc(S(=O)(=O)NCCOCCOCCNC(=O)NCCCCNC(=O)NCCOCCOCCNS(=O)(=O)c2ccc(O[C@H]3c4cc(Cl)cc(OC(F)(F)F)c4C[C@@H]3N(C)C)cc2)cc1
< 100 | < 100 | COc1cc(Cl)cc2c1C[C@H](N1CCC[C@@H](N)C1)[C@H]2Oc1ccc(S(=O)(=O)NCCOCCOCCNC(=O)NCCCCNC(=O)NCCOCCOCCNS(=O)(=O)c2ccc(O[C@H]3c4cc(Cl)cc(OC)c4C[C@@H]3N3CCC[C@@H](N)C3)cc2)cc1
< 100 | < 100 | N#Cc1cc(Cl)cc2c1C[C@H](N1CCC[C@@H](N)C1)[C@H]2Oc1ccc(S(=O)(=O)NCCOCCOCCNC(=O)NCCCCNC(=O)NCCOCCOCCNS(=O)(=O)c2ccc(O[C@H]3c4cc(Cl)cc(C#N)c4C[C@@H]3N3CCC[C@@H](N)C3)cc2)cc1

SMILES | IC50 [1] [nM] | IC50 [2] [nM]
O=C(NCCCCNC(=O)NCCOCCOCCNS(=O)(=O)c1ccc(O[C@H]2c3cc(Cl)cc(Cl)c3C[C@@H]2N2C3CCCC2CC3)cc1)NCCOCCOCCNS(=O)(=O)c1ccc(O[C@H]2c3cc(Cl)cc(Cl)c3C[C@@H]2N2C3CCCC2CC3)cc1 | < 100 | < 100
